# Laboratory results: patent publication US20160340683A1, “NANOCARRIER BASED PLANT TRANSFECTION AND TRANSDUCTION” (HER MAJESTY THE QUEEN IN RIGHT OF CANADA AS REPRESENTED BY …, priority 2007, published 2016)
# fluorescein = fluorescein label at the N-terminus
# System: isolated microspores of Triticale (variety Sunray)
# Assay: CPP delivery of GUS enzyme into isolated microspores, GUS staining
# Assay type: cell-based
# Settings: GUS enzyme cargo:CPP 1:4, 1 hour at 37° C., three repeats
# Procedure: Triticale line Sunray grown in a growth cabinet with a photoperiod of 19 h day (intensity 300 μE m-2 s-1), and temperature 18-15° C. (day-night) with a relative humidity at about 70% was used as the donor plant material. The plants were fertilized every 2 weeks (20-20-20, 200 ppm) and treated with 2.5 ml I-1 Tilt™ (propiconazole, Syngenta) during the tillering stage and Intercept™ (0.004 g per litre of soil, Imidacloprid, Bayer) once sufficient root development was established. The first 10 tillers from each pot were harvested when the spike was at 3-4 cm, depending on the crop, from emergence from the boot. These tillers (to be used for microspore isolation) were subjected to pre-treatment in a refrigerator (4° C.) for 21 days with their bases in distilled water and their heads wrapped in aluminum foil. After 21±3 days of pre-treatment, the spikes were excised from their tillers and after an evaluation of their general appearance, only the most homogenous spikes were used. After confirming microspores at mid to bi-nucleate stage from a median floret, using acetocarmine staining, the tillers were processed for extraction.
# Awns were removed with scissors in a laminar flow hood. Eight-fourteen spikes were used for microspore isolation. They were sterilized with 10% bleach (5.25% sodium hypochlorite) for 3 min followed by rinsing in sterile double distilled water four times of 1 min each with constant agitation. Outer glumes were removed and florets from all the spikes were aseptically dissected and transferred to a sterile and refrigerated 110 ml Warring blender cup (VWR international, #58983-093) containing 50 ml filter sterilized extraction buffer at 4° C. Florets were then blended twice for 7 s at low speed (18000 rpm). The slurry was then poured through a 1 mm sieve followed by pouring through a 100 μm sterile mesh (VWR International, #CA21008-950) into two 50 ml centrifuge tubes (25 ml each). The blender cup was rinsed with 50 ml extraction buffer at 4° C. and poured through the 100 μm mesh and was added to the first aliquot in the 50 ml tubes. The cells were then pelleted by centrifugation (100×g for 5 min at 4° C.) using a swinging bucket rotor. After pouring off the supernatant, the microspore-containing pellets were pooled together in one 50 ml tube and re-suspended in 50 ml cold extraction buffer. The cells were pelleted again with centrifugation (100×g for 5 min at 4° C.), the supernatant poured off and the pellet was transferred to a 15 ml tube. After re-suspending the pellet in CIMC Wash Buffer supplemented with 10 microM SS-31 peptide, it was subjected to wash and centrifugation using the above conditions. The supernatant was removed and the pellet was re-suspended in CIMC Wash buffer and centrifugation was repeated as above. The pellet was then suspended in 7 mL of 20% maltose at 4° C., layered with 1 mL of CIMC wash buffer and was centrifuged at 100 g for 13 min at 4° C. A band of microspores formed at the interface was collected in a new 15 ml tube. The cells were diluted with CIMC wash solution and subsequently collected by centrifugation at 150 g for 5 min. The supernatant was removed and the cells were finally suspended in a total volume of 1.4 ml of appropriate solution. After counting the cells using a haemocytometer, aliquots of 100,000 cells in 200 μl volume were prepared in 2 ml microcentrifuge tubes to be ready for transduction.
# Peptide stock solutions were made in water at 1 μg/μl concentration. CPP (Nanocarrier) and GUS enzyme (cargo) were first prepared in separate microcentrifuge tubes. A total of 4 μg of CPP was prepared in sterile water to a final volume of 100 μl. Similarly, 1 μg of GUS enzyme was added to sterile water to a final volume of 100 μl. The contents of the two tubes were mixed together giving a ratio of 1:4 protein cargo:CPP. The complex was incubated for 30 min at room temperature (RT). Chariot (PAP1) protein delivering reagent was used as a positive control in the experiments. […]
row,Substance,Average Transduction Efficiency [%]
1,RRRRKKRGRKGRDKEERRDRRRRRRR [CPP40],11.74
2,RKRKRGKGIGSGRGRGRGR [CPP43],0
3,KSKANRHRHHRRHRQQKPTTTRRRRR [CPP64],5.40
4,RRRRWRHRCATKTAATTLRRRRRRRRGRR [CPP29],22.25
5,RRRRRRRRHEQRRRRRKRGRGR [CPP2],18.7
6,RLKRRRRRRRKVSRR [CPP33],15.67
7,RRDGVPRRRRRRRHMGRQR [CPP27],2.06
8,RRRQERRER [CPP63],0
9,MDERRRRRRRLTATRKVAAARRRRKRR [CPP54],6.21
10,RKEKKRIKQRKAFIMAEKKKRK [CPP13],0
11,RRRGRRRRRRRRQRQQRR [CPP6],15.07
12,KKKGKGKKKKQGK [CPP4],0
13,KTAATTLRRRRRRRRGRR [CPP28],5.61
14,KRKKSGKKKKIGRFLSRLVGAEKRR [CPP9],5.79
15,RRRRKKRGRKGRDKEERRDR [CPP42],1.20
16,RRLTTGLSFYSKPYRRSRGPRHRTEKRKRIR [CPP56],5.47
17,RRRIAGSALVGAPPQARRRRRRR [CPP52],0
18,RRRRRRRGRDARRR [CPP8],2.78
19,RRSGRRQRRRRRRRRKR [CPP66],23.38
20,RKRKRGKGIGSGRGRGRGRASGSEKGRGSGKGKAK [CPP44],11.27
21,KKKKKKKRPTALTPTPSLLRRRRRRR [CPP26],0
22,RRRPRPARLRHRLHRPINLKFERK [CPP15],9.23

row,Substance,Average Transduction Efficiency [%]
1,RPLPLPLPLPRGPRRRRRRR [CPP30],0
2,RRRKGSSYRRRRRRRRR [CPP20],0
3,RRRRRRRRRRKRGGRR [CPP14],0
4,RLRRLLLPLRRRRRLRQRRR [CPP25],8.7
5,RARRRSTARRRKRRTPTRSGR [CPP32],1.26
6,MALERPWKRRRRRRR [CPP47],0
7,RRFRRTAPRAAGEARGLRRLRKSR [CPP57],5.77
8,RRSLLSRRIRRRLRRRPKPRRRRRRR [CPP46],9.31
9,RRARRRTRRGGGEAGRRQERRRRRRRR [CPP31],0
10,RVRSSRRAAEGRRRRRRREKR [CPP37],1.94
11,RKRKEENTGRRRRRRRERKRR [CPP22],1.94
12,KEKKKERRGVRDKERDK [CPP53],0
13,RRRRRRREKLAEATRGGGEKR [CPP35],0
14,RRLRCRREGKEKR [CPP60],0
15,RSSRRAAEGRRRRRRRREKR [CPP36],0
16,RRRRRITRVRRRRRRR [CPP39],13.15
17,RTSKRRVRRRRRRR [CPP38],0
18,RRRRRRRRRRVRFDSRR [CPP7],16.63
19,RAGVDGRGRRRRRRRR [CPP50],1.31
20,RRRGIKPNAKRRRRRRRR [CPP23],0
21,RRPHSRHRRRRRRR [CPP10],0
22,RKQPGRKPGVRTARPKRSKKSQLKK [CPP58],0

row,Substance,Average Transduction Efficiency [%]
1,RKKKGKRKEERER [CPP55],0
2,MRRRRRRRRR [CPP48],1.09
3,RRGWRWRSAPRGGSRRRRRRRR [CPP12],5.25
4,RAWYRFRHLVRGKWRERLRRKFK [CPP62],9.78
5,RRRRARGKRCWLRRRRRR [CPP49],11.89
6,RRSKRDVRGRQRRRRRRRLFPRR [CPP1],21.07
7,RRRRRRRAGERRAREDMGRRKFR [CPP19],0
8,KRRRSWRRRRSRTRQRRRRSRRRRRRRR [CPP41],21.17
9,RRKNDKPKTGGEKKSTKDAPESSKKKNRK [CPP61],0
10,KAKKNRSHIGKLKMTKTSGRKRSR [CPP21],0
11,KGHRFRSKFRHYRFRFR [CPP45],0
12,RRWRRRRSRRRRRRRRR [CPP18],0
13,RSGRRDRRRKKGSAR [CPP59],0
14,RCRRRRRRRETTSR [CPP67],0
15,RRHRQQKPTTTRRRRR [CPP65],0
16,RRRRRRRRHGRR [CPP24],18.77
17,KRKPKGGDAAEGSEKRKPKKKK [CPP16],0
18,RRRVGRRAPRRRRR [CPP51],0
19,RRRGRRRRRRRRQRQQRRQEGNRRR [CPP5],5.88
20,RRRRKKRGRKGRDKEERRDRRRRRRR [CPP11],16.61

# System: immature embryos
# Assay: Translocation of fluoresceinated CPPs in zygotic embryos, fluorescence microscopy
# Assay type: cell-based, Triticale cv AC Alta
# Settings: in the presence of cellular permeabilizing agent (toluene)
# Procedure: The embryos were isolated from spikes two weeks post-anthesis (scutellum diameter 1-2 mm). The immature seeds were surface sterilized with 70% ethanol for 30 s followed by treatment with 10% hypochlorite (Chlorex) and a drop of Tween 20, 3 min. Four washings of 1 min each were given with sterile water. The embryos were hand dissected under sterile conditions. Isolated embryos were placed on GEM medium (Eudes et al, 2003) for 24 h in dark at room temperature prior to CPP translocation studies.
# Isolated and sterilized embryos (20-25) were imbibed in total volume of 420 μl permeabilization buffer (15 mM sodium chloride, 1.5 mM sodium citrate, pH 7.1) containing cellular permeabilization agent toluene/ethanol (1:4) in 1:20 ratio with permeabilization buffer. To this 2.1 μl of 1 mM fluoresceinated CPP was added to give a final concentration of 5 μM. In negative controls, the embryos were treated with FITC-dextran sulphate or M-Tat. The embryos were incubated in the permeabilization mix for 1 h in dark at room temperature, followed by two washings with permeabilization buffer. The embryos were then treated with trypsin:EDTA (0.25% solution, Sigma-Aldrich) in 1:2 ratio with permeabilization buffer for 5 min at room temperature to remove free peptide molecules. Embryos were washed two times with permeabilization buffer and subjected either for fluorescence microscopy or spectrofluorimetric analysis.
row,Substance,Uptake seen by fluorescence microscopy (FIG. 1)
1,Dextran Sulphate,some fluorescence

# Same assay, conditions: mature and immature embryos, with or without permeabilization
row,Substance,"Fluorescence under fluorescence microscope, overall comparison"
1,Dextran Sulphate,none or very weak fluorescence
2,FI-LLIILRRRIRKQAHAHSK-amide (fluorescein-LLIILRRRIRKQAHAHSK-NH2) [pVEC],least uptake

# Same assay, conditions: without cellular permeabilizing agent
row,Substance,Uptake seen by fluorescence microscopy (FIG. 1)
1,Dextran Sulphate,did not demonstrate any significant uptake
